Measured values: US11759455B2, “Substituted 1H-imidazo[4,5-b]pyridin-2(3H)-ones and their use as GLUN2B receptor modulators” (JANSSEN PHARMACEUTICA NV, priority 2016, dated 2023)
Where two headings read alike, the source gives them in different places.

Target: T1, human GluN1/GluN2B NMDA receptors (Homo sapiens, UniProt Q13224)
T1 construct: expressed in transfected cells
Experiment: Cell-based calcium flux (FLIPR) assay on cloned human NR1/NR2B ion channels expressed in mammalian cells (standard and HTS buffer variants);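 further: stable Tet-On inducible cell line, Ca2+ influx triggered by glutamate at about EC40 plus 10 µM glycine, fluorescent dye read-out over 5 min, normalized to control wells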

[1] = HTS assay buffer (1.5 mM MgCl2 in dye loading buffer; 150 mM NaCl, 3 mM KCl in assay buffer), human GluN1/GluN2B, read-out: NR2B IC50 (μM) HTS assay
[2] = standard assay buffer (0.5 mM MgCl2 in dye loading buffer; 137 mM NaCl, 4 mM KCl in assay buffer), human GluN1/GluN2B, read-out: NR2B IC50 (μM) standard assay
[3] = standard assay buffer (0.5 mM MgCl2 dye loading; 137 mM NaCl, 4 mM KCl assay buffer), human GluN1/GluN2B cells, read-out: NR2B IC50 (μM) standard assay

T1 sequence (Q13224 27-1484, other chains not shown): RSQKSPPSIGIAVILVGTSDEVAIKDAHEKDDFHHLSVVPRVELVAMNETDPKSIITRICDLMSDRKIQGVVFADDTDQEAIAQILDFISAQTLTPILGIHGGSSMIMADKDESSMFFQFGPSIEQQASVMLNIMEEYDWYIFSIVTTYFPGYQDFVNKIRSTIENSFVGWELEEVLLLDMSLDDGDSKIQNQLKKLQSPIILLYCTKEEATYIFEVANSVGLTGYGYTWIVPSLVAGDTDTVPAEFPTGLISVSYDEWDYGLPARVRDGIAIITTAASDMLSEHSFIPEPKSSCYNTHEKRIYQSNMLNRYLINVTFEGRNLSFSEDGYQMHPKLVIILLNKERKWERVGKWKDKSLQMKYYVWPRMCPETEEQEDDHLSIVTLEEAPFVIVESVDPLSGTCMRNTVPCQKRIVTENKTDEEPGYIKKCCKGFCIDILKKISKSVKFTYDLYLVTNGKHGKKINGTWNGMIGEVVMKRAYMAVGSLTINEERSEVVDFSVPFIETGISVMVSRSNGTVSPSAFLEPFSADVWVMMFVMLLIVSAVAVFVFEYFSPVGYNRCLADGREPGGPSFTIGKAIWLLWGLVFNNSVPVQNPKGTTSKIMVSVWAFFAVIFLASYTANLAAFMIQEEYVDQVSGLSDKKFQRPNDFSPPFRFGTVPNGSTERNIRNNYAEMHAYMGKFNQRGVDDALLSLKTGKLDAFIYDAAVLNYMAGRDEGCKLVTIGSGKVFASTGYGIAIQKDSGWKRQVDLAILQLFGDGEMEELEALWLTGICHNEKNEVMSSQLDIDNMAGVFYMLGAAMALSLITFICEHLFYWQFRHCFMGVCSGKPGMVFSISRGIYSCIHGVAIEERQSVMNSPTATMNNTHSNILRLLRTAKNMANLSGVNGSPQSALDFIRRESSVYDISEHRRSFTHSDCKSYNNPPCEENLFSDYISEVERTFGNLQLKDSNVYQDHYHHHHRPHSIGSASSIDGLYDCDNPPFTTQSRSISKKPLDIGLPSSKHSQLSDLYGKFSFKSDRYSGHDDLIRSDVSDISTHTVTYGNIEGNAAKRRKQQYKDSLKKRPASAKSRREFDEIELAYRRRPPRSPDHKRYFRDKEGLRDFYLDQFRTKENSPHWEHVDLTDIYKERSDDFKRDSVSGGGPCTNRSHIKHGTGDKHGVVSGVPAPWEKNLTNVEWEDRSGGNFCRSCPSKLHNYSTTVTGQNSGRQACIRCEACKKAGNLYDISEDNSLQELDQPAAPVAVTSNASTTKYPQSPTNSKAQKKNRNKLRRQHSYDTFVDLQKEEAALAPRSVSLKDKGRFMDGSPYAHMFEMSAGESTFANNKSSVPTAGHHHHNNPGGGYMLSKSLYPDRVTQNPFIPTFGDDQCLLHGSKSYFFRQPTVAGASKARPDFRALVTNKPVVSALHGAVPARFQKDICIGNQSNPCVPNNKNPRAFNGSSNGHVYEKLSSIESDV

Structure (SMILES) | IC50 [2] | IC50 [3] | other results
O=c1[nH]c2ncc(-c3cc(F)cc(F)c3)cc2n1Cc1cccc(Cl)c1 [Example 504, 1-[(3-Chlorophenyl)methyl]-6-(3,5-difluorophenyl)-3H-imidazo[4,5-b]pyridin-2-one] | – | – | IC50 [1]: 4.13 µM
CC(C)c1ccc(Cn2c(=O)[nH]c3ncc(-c4ccc(Cl)cc4)cc32)cc1 [Example 511, 6-(4-Chlorophenyl)-1-[(4-isopropylphenyl)methyl]-3H-imidazo[4,5-b]pyridin-2-one] | – | – | IC50 [1]: > 29 µM
O=c1[nH]c2ncc(-c3cc(F)cc(F)c3)cc2n1CCN1CCC(O)C1 (stereo not drawn) [Example 175, 6-(3,5-Difluorophenyl)-1-[2-(3-hydroxypyrrolidin-1-yl)ethyl]-3H-imidazo[4,5-b]pyridin-2-one] | – | 2.11 µM | –
O=c1[nH]c2ncc(-c3cccc(OC(F)F)c3)cc2n1Cc1cccnc1 [Example 300, 6-[3-(Difluoromethoxy)phenyl]-1-(3-pyridylmethyl)-3H-imidazo[4,5-b]pyridin-2-one] | – | 0.03 µM | –
COc1cccc(F)c1-c1cnc2[nH]c(=O)n(CC(=O)NC3CC3)c2c1 [Example 455, N-Cyclopropyl-2-[6-(2-fluoro-6-methoxy-phenyl)-2-oxo-3H-imidazo[4,5-b]pyridin-1-yl]acetamide] | 0.416 µM | – | –
Cc1nccc(Cn2c(=O)n(C)c3ncc(-c4cccc(C(F)(F)F)c4)cc32)n1 [Example 248, 3-Methyl-1-[(2-methylpyrimidin-4-yl)methyl]-6-[3-(trifluoromethyl)phenyl]imidazo[4,5-b]pyridin-2-one] | – | 2.05 µM | –
CN(C)c1cccc(-c2cnc3[nH]c(=O)n(CC4CC4)c3c2)c1 [Example 473, 1-(Cyclopropylmethyl)-6-[3-(dimethylamino)phenyl]-3H-imidazo[4,5-b]pyridin-2-one] | – | – | IC50 [1]: 15.7 µM
Cc1c(F)ccc(-c2cnc3[nH]c(=O)n(CCN4CC(F)C4)c3c2)c1C [Example 184, 1-[2-(3-Fluoroazetidin-1-yl)ethyl]-6-(4-fluoro-2,3-dimethyl-phenyl)-3H-imidazo[4,5-b]pyridin-2-one] | – | 2.57 µM | –
Cn1c(=O)n(Cc2cncc(Cl)c2)c2cc(-c3ccc(C(F)(F)F)s3)cnc21 [Example 373, 1-[(5-Chloro-3-pyridyl)methyl]-3-methyl-6-[5-(trifluoromethyl)-2-thienyl]imidazo[4,5-b]pyridin-2-one] | 9.72 µM | – | –
Cc1c(F)ccc(-c2cnc3c(c2)n(Cc2cncc(Cl)c2)c(=O)n3C)c1F [Example 368, 1-[(5-Chloro-3-pyridyl)methyl]-6-(2,4-difluoro-3-methyl-phenyl)-3-methyl-imidazo[4,5-b]pyridin-2-one] | 0.356 µM | – | –
CCNC(=O)Cn1c(=O)[nH]c2ncc(-c3ccc(F)cc3C)cc21 [Example 3, N-Ethyl-2-[6-(4-fluoro-2-methyl-phenyl)-2-oxo-3H-imidazo[4,5-b]pyridin-1-yl]acetamide] | – | 0.088 µM | –

Now from value to compound, other results behind:

IC50 [2] | IC50 [3] | Structure (SMILES) | other results
3.57 µM | – | Cc1cc(C)cc(-c2cnc3[nH]c(=O)n(CC4CC4)c3c2)c1 [Example 474, 1-(Cyclopropylmethyl)-6-(3,5-dimethylphenyl)-3H-imidazo[4,5-b]pyridin-2-one] | –
0.333 µM | – | O=C(Cn1c(=O)[nH]c2ncc(-c3cc(OCCF)cc(C(F)(F)F)c3)cc21)N1CCC1 [Example 539, 1-[2-(Azetidin-1-yl)-2-oxo-ethyl]-6-[3-(2-fluoroethoxy)-5-(trifluoromethyl)phenyl]-3H-imidazo[4,5-b]pyridin-2-one] | –
0.533 µM | – | Cc1nnc(Cn2c(=O)n(C)c3ncc(-c4ccc(C)s4)cc32)o1 [Example 554, 3-Methyl-1-[(5-methyl-1,3,4-oxadiazol-2-yl)methyl]-6-(5-methyl-2-thienyl)imidazo[4,5-b]pyridin-2-one] | –
0.034 µM | – | CN(C)C(=O)Cn1c(=O)n(C)c2ncc(-c3ccc(Cl)c(OC(F)F)c3)cc21 [Example 591, 2-[6-[4-Chloro-3-(difluoromethoxy)phenyl]-3-methyl-2-oxo-imidazo[4,5-b]pyridin-1-yl]-N,N-dimethyl-acetamide] | –
